Data reported in ChEMBL document CHEMBL4765464, “Discovery of BMS-986144, a Third-Generation, Pan-Genotype NS3/4A Protease Inhibitor for the Treatment of Hepatitis C Virus Infection” (J Med Chem, 2020).

What was measured:
[1] = Inhibition of recombinant full length NS3/4A protease in Hepatitis C virus subtype 3a infected in human HuH7 cells using Ac-Asp-Glu-Asp (EDANS)-Glu-Glu-Abu-(COO) Ala-Ser-Lys (DABCYL)-NH2 as substrate by FRET assay; settings: Huh-7
[2] = Inhibition of recombinant full length NS3/4A protease in Hepatitis C virus subtype 1b replicon infected in human HuH7 cells preincubated for 3 days followed by substrate addition and measured after 2 hrs by renilla luciferase reporter gene assay; assay type: cell-based; settings: Huh-7
[3] = Inhibition of recombinant full length NS3/4A protease in Hepatitis C virus subtype 2a replicon infected in human HuH7 cells preincubated for 3 days followed by substrate addition and measured after 2 hrs by renilla luciferase reporter gene assay; assay type: cell-based; settings: Huh-7
[4] = Inhibition of recombinant full length NS3/4A protease in Hepatitis C virus subtype 3a replicon infected in human HuH7 cells preincubated for 3 days followed by substrate addition and measured after 2 hrs by renilla luciferase reporter gene assay; assay type: cell-based; settings: Huh-7
[5] = Inhibition of recombinant full length NS3/4A R155K mutant protease in Hepatitis C virus subtype 1a replicon infected in human HuH7 cells preincubated for 3 days followed by substrate addition and measured after 2 hrs by renilla luciferase reporter gene assay; assay type: cell-based; settings: Huh-7
[6] = Inhibition of recombinant full length NS3/4A D168V mutant protease in Hepatitis C virus subtype 1b replicon infected in human HuH7 cells preincubated for 3 days followed by substrate addition and measured after 2 hrs by renilla luciferase reporter gene assay; assay type: cell-based; settings: Huh-7
[7] = Metabolic stability in human liver microsomes assessed as half-life incubated for 5 to 45 mins in presence of NADPH by LC-MS analysis; assay type: ADME, Microsome; settings: time 5-45 min
[8] = Clearance in rat at 1 mg/kg, iv; assay type: ADME, organism-based; settings: in vivo
[9] = Half life in rat at 1 mg/kg, iv; assay type: ADME, organism-based; settings: in vivo
[10] = AUC (0 to 24 hrs) in rat at 5 mg/kg, po; assay type: ADME, organism-based; design: time < 24 hr, route oral, dose 5 mg/kg; settings: in vivo
[11] = Drug concentration in rat liver at 5 mg/kg, po measured upto 24 hrs; assay type: ADME, organism-based; settings: read-out: Ct
[12] = Oral bioavailability in rat at 5 mg/kg; assay type: ADME, organism-based; settings: in vivo
[13] = Half-life in dog at 3 mg/kg, po or 1 mg/kg, iv; assay type: ADME, organism-based, Canis lupus familiaris; settings: in vivo
[14] = Half-life in rat at 5 mg/kg, po or 1 mg/kg, iv; assay type: ADME, organism-based; settings: in vivo
[15] = Clearance in rat at 5 mg/kg, po or 1 mg/kg, iv; assay type: ADME, organism-based; settings: in vivo
[16] = AUC in rat at 5 mg/kg, po or 1 mg/kg, iv; assay type: ADME, organism-based; design: dose 5 mg/kg; settings: in vivo
[17] = Clearance in dog at 3 mg/kg, po or 1 mg/kg, iv; assay type: ADME, organism-based, Canis lupus familiaris; settings: in vivo
[18] = Oral bioavailability in dog at 3 mg/kg; assay type: ADME, organism-based, Canis lupus familiaris; settings: in vivo
[19] = AUC in dog at 3 mg/kg, po or 1 mg/kg, iv; assay type: ADME, organism-based, Canis lupus familiaris; design: dose 3 mg/kg; settings: in vivo
[20] = Drug concentration in dog plasma at 3 mg/kg, po measured upto 24 hrs; assay type: ADME, organism-based, Canis lupus familiaris; settings: read-out: Ct
[21] = Clearance in cynomolgus monkey at 3 mg/kg, po or 1 mg/kg, iv; assay type: ADME, organism-based, Macaca fascicularis; settings: in vivo
[22] = Oral bioavailability in cynomolgus monkey at 3 mg/kg; assay type: ADME, organism-based, Macaca fascicularis; settings: in vivo
[23] = AUC in cynomolgus monkey at 3 mg/kg, po or 1 mg/kg, iv; assay type: ADME, organism-based, Macaca fascicularis; design: dose 3 mg/kg; settings: in vivo
[24] = Drug concentration in cynomolgus monkey plasma at 3 mg/kg, po measured upto 24 hrs; assay type: ADME, organism-based, Macaca fascicularis; settings: read-out: Ct
[25] = Inhibition of HCV 1a NS3/4A protease; design: species or system Hepatitis C virus subtype 1a
[26] = Inhibition of HCV 2b NS3/4A protease; design: species or system Hepatitis C virus subtype 2b
[27] = Inhibition of HCV 3a NS3/4A protease; design: species or system Hepatitis C virus subtype 3a
[28] = Inhibition of HCV 4a NS3/4A protease; design: species or system Hepatitis C virus subtype 4a
[29] = Inhibition of HCV 5a NS3/4A protease; design: species or system Hepatitis C virus subtype 5a
[30] = Inhibition of HCV 6a NS3/4A protease; design: species or system Hepatitis C virus subtype 6a
[31] = Inhibition of HCV 1a NS3/4A protease preincubated for 45 mins in presence of compound; design: species or system Hepatitis C virus subtype 1a
[32] = Inhibition of HCV 1b NS3/4A protease preincubated for 45 mins in presence of compound; design: species or system Hepatitis C virus subtype 1b
[33] = Inhibition of HCV 2a NS3/4A protease preincubated for 45 mins in presence of compound; design: species or system Hepatitis C virus subtype 2a
[34] = Inhibition of HCV 2b NS3/4A protease preincubated for 45 mins in presence of compound; design: species or system Hepatitis C virus subtype 2b
[35] = Inhibition of HCV 5a NS3/4A protease preincubated for 45 mins in presence of compound; design: species or system Hepatitis C virus subtype 5a
[36] = Inhibition of HCV 6a NS3/4A protease preincubated for 45 mins in presence of compound; design: species or system Hepatitis C virus subtype 6a
[37] = Selectivity index, ratio of IC50 for inhibition of HCV 1a NS3/4A protease to IC50 for inhibition of HCV 1a NS3/4A protease preincubated for 45 mins in presence of compound
[38] = Selectivity index, ratio of IC50 for inhibition of HCV 1b NS3/4A protease to IC50 for inhibition of HCV 1b NS3/4A protease preincubated for 45 mins in presence of compound
[39] = Selectivity index, ratio of IC50 for inhibition of HCV 2b NS3/4A protease to IC50 for inhibition of HCV 2b NS3/4A protease preincubated for 45 mins in presence of compound
[40] = Selectivity index, ratio of IC50 for inhibition of HCV 3a NS3/4A protease to IC50 for inhibition of HCV 3a NS3/4A protease preincubated for 45 mins in presence of compound
[41] = Selectivity index, ratio of IC50 for inhibition of HCV 4a NS3/4A protease to IC50 for inhibition of HCV 4a NS3/4A protease preincubated for 45 mins in presence of compound
[42] = Selectivity index, ratio of IC50 for inhibition of HCV 5a NS3/4A protease to IC50 for inhibition of HCV 5a NS3/4A protease preincubated for 45 mins in presence of compound
[43] = Selectivity index, ratio of IC50 for inhibition of HCV 6a NS3/4A protease to IC50 for inhibition of HCV 6a NS3/4A protease preincubated for 45 mins in presence of compound
Cytochrome P450 3A4 [44] = biological target: T1, Cytochrome P450 3A4 (Homo sapiens, UniProt P08684); assay: Inhibition of human CYP3A4 in human pooled liver microsomes at 0.002 to 40 uM in presence of midazolam as substrate preincubated in presence of NADPH followed by addition of substrate by LC-MS/MS analysis; assay type: ADME; settings: TDE = time-dependent effect, dose 0.002-40 µM, time <=30 min
T1 sequence (P08684 whole entry): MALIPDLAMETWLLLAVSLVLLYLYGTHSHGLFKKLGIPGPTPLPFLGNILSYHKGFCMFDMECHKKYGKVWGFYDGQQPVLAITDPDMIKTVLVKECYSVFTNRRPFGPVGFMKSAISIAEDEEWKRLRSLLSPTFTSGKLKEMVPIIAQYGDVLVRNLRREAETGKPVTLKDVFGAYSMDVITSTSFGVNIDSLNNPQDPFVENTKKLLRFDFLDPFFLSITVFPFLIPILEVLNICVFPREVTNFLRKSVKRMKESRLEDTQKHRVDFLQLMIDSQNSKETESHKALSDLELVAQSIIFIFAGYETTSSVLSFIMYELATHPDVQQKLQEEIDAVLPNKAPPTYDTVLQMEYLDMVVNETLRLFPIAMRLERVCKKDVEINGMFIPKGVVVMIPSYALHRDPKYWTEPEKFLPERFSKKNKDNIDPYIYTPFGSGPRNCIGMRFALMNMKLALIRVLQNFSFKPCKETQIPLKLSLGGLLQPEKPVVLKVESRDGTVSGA

Cytochrome P450 3A4 [45] = biological target: T1, Cytochrome P450 3A4; assay: Inhibition of human CYP3A4 in human pooled liver microsomes in presence of testosterone as substrate preincubated for 0 mins in presence of NADPH followed by addition of substrate by LC-MS/MS analysis; assay type: ADME
Cytochrome P450 3A4 [46] = biological target: T1, Cytochrome P450 3A4; assay: Inhibition of human CYP3A4 in human pooled liver microsomes in presence of midazolam as substrate preincubated for 0 mins in presence of NADPH followed by addition of substrate by LC-MS/MS analysis; assay type: ADME

CC[C@@H]1C[C@H](C)CC/C=C\[C@@H]2C[C@@]2(C(=O)NS(=O)(=O)C2(C)CC2)NC(=O)[C@@H]2C[C@@H](Oc3nccc4cc(OC)c(F)cc34)CN2C(=O)[C@H]1NC(=O)OC(C)(C)C(F)(F)F
IC50 [1]: 6.3 nM
EC50 [2]: 1.1 nM
EC50 [3]: 1.4 nM
EC50 [4]: 14 nM
EC50 [5]: 11 nM
EC50 [6]: 6 nM
half-life [7]: 0.467 h
clearance [8]: 0.3 mL/min/kg
half-life [9]: 9.3 h
AUC(0-t) at 24 h [10]: 151 µM·h
concentration at 24 h [11]: 5830 nM
bioavailability [12]: 50%
half-life [13]: 8.2 h
half-life [14]: 9.3 h
clearance [15]: 0.3 mL/min/kg
AUC [16]: 241 µM·h
clearance [17]: 0.3 mL/min/kg
bioavailability [18]: 87%
AUC [19]: 81 µM·h
concentration at 24 h [20]: 838 nM
clearance [21]: 9.3 mL/min/kg
bioavailability [22]: 14%
AUC [23]: 0.898 µM·h
concentration at 24 h [24]: 1 nM
IC50 [25]: 0.8 nM
IC50 [26]: 2 nM
IC50 [27]: 5.6 nM
IC50 [28]: 0.9 nM
IC50 [29]: 1 nM
IC50 [30]: 0.7 nM
IC50 [31]: 0.2 nM
IC50 [32]: 0.1 nM
IC50 [33]: 0.2 nM
IC50 [34]: 0.9 nM
IC50 [35]: 0.1 nM
IC50 [36]: 0.1 nM
Selectivity Index [37]: 4
Selectivity Index [38]: 6
Selectivity Index [39]: 2
Selectivity Index [40]: 1
Selectivity Index [41]: 9
Selectivity Index [42]: 10
Selectivity Index [43]: 6
inhibition (INH) (Cytochrome P450 3A4 [44]): Tde
IC50 (Cytochrome P450 3A4 [45]): > 40000 nM
IC50 (Cytochrome P450 3A4 [46]): > 40000 nM
